Experimental data taken from US10807932B2, “Benzosuberene analogues and related compounds with activity as anticancer agents” (Baylor University, priority 2018, dated 2020).

Tests used:
tubulin = assay: Colchicine binding assay (inhibition of [3H]colchicine binding to tubulin); conditions: 1.0 μM tubulin, 5.0 μM [3H]colchicine
Method: Colchicine Binding Assay.
Inhibition of [^3H]colchicine binding to tubulin was measured in 0.1 mL reaction mixtures, each containing 1.0 μM tubulin, 5.0 μM [^3H]colchicine (Perkin-Elmer), 5% (v/v) dimethyl sulfoxide, […], and components that stabilize the colchicine binding activity of tubulin (1.0 M monosodium glutamate [adjusted to pH 6.6 with HCl in a 2.0 M stock solution], 0.5 mg/mL bovine serum albumin, 0.1 M glucose-1-phosphate, 1.0 mM MgCl2, and 1.0 mM GTP). […] Reactions were stopped with 2.0 mL of ice-cold water, with the reaction mixtures being placed on ice. Each diluted sample was poured onto a stack of two DEAE-cellulose filters (GE Biomedical), followed by 3 successive 2 mL aliquots of ice-cold water. A reduced vacuum was used to remove excess water from the filters, which were washed three times with 2 mL water and placed into vials containing 5 mL of Biosafe II scintillation cocktail. Samples were counted 18 h later in a Beckman scintillation counter. Samples with inhibitors were compared to samples with no inhibitor, and percent inhibition was determined, correcting all values for the amount of radiolabel bound to the filters in the absence of tubulin.

[1] = system: SK-OV-3 (ovarian) cancer cell line; assay: Sulforhodamine B (SRB) growth inhibition assay, SK-OV-3; assay type: cell-based, human; conditions: 48 h treatment
From the text: (§1) Cell Lines and Sulforhodamine B (SRB) Assay.
(§2) The sulforhodamine B (SRB) assay was used to assess growth inhibition of human cancer cells, as previously described. DU-145, SK-OV-3, and NCI-H460 cancer cell lines (obtained from ATCC) were maintained in T75 flasks (Corning) using high glucose DMEM supplemented with 10% fetal bovine serum (Gibco)/1% gentamicin sulfate for a maximum of 15 passages. For these experiments, cells were trypsinized, counted, and plated at 7000-8000 cells/well into 96-well plates (Corning) and incubated for 24 h at 37° C. in a humidified incubator in a 5% CO2 atmosphere. Compounds to be tested were dissolved in DMSO to generate a 10 mg/mL stock solution, and serial dilutions added in media to the plates. Doxorubicin (Sigma-Aldrich) and paclitaxel (Tokyo Chemical) were used as positive controls. After a 48 h treatment, the cells were fixed with trichloroacetic acid (10% final concentration), washed, dried, stained with SRB dye, washed to remove excess dye, and dried. SRB dye was solubilized, and absorbances were measured at wavelength 540 nm and normalized to values at wavelength 630 nm using an automated Biotek plate reader.

[2] = system: NCI-H460 (lung) cancer cell line; assay: Sulforhodamine B (SRB) growth inhibition assay, NCI-H460; assay type: cell-based, human; conditions: 48 h treatment
From the text: as §1, §2

[3] = system: DU-145 (prostate) cancer cell line; assay: Sulforhodamine B (SRB) growth inhibition assay, DU-145; assay type: cell-based, human; conditions: 48 h treatment
From the text: as §1, §2

[4] = target: T1, purified bovine brain tubulin (Bos taurus, UniProt P81947+Q6B856); assay: Inhibition of tubulin polymerization (turbidimetric, cell-free); assay type: biochemical; conditions: for IC50: 10 μM tubulin, extent of polymerization after 20 min at 30° C., read-out: Inhibition of tubulin polymerization IC50 (μM) ± SD; for inhibition of tubulin polymerization (in words): cell-free assay
T1 construct: purified bovine brain tubulin; from tissue; host or cells: bovine brain
T1 sequence (Q6B856 whole entry): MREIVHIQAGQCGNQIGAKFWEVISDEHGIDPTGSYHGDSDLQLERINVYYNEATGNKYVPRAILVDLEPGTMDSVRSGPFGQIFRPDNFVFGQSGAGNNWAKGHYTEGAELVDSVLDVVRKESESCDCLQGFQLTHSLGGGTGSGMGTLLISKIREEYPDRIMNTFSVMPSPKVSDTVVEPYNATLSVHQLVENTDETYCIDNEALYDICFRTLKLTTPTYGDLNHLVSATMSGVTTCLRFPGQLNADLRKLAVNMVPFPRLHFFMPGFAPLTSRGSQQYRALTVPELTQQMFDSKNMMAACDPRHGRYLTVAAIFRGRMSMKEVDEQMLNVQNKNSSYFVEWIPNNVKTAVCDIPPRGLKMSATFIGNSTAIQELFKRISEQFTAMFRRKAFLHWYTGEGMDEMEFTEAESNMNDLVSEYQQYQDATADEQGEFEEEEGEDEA
T1 sequence (P81947 whole entry): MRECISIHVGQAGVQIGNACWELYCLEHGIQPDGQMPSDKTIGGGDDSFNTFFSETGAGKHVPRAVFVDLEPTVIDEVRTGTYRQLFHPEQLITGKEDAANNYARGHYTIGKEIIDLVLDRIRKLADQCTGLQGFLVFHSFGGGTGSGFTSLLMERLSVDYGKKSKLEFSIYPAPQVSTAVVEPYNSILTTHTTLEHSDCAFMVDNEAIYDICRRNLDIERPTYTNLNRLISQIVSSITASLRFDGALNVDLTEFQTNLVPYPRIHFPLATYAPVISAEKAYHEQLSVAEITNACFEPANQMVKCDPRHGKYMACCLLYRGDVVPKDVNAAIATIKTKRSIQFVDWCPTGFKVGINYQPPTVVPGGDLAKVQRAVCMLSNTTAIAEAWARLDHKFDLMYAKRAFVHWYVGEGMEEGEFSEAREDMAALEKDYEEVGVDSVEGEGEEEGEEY
Method: Inhibition of Tubulin Polymerization.
Tubulin polymerization was evaluated in 0.25 mL reaction mixtures (final volume) containing 1 mg/mL (10 μM) purified bovine brain tubulin, 0.8 M monosodium glutamate (pH 6.6), 4% (v/v) dimethyl sulfoxide, 0.4 mM GTP, and different compound concentrations. All components except GTP were preincubated for 15 min at 30° C. in 0.24 mL. The assay mixtures were cooled to 0° C., and 10 μL of 0.01 M GTP was added to each sample. Reaction mixtures were transferred to cuvettes held at 0° C. in Beckman DU-7400 and DU-7500 spectrophotometers equipped with electronic temperature controllers. The temperature was increased to 30° C., over about 30 s, and polymerization was followed turbidimetrically at 350 nm for 20 min.

Row | SMILES | % Inhibition of colchicine binding ± SD (tubulin; compound at 1 μM) | GI50 [1] [µM] | GI50 [2] [µM] | GI50 [3] [µM] | IC50 [4] [µM] | % Inhibition of colchicine binding ± SD (tubulin; compound at 5 μM) | GI50 ([1]; Homo sapiens, SK-OV-3) [µM] | GI50 ([2]; Homo sapiens, NCI-H460) [µM] | GI50 ([3]; Homo sapiens, DU-145) [µM] | inhibition of tubulin polymerization (in words) [4]
1 | COc1ccc(/C=C\c2cc(OC)c(OC)c(OC)c2)cc1O [CA4, combretastatin A-4, reference compound] | 84 ± 3% | 0.00455 | 0.00223 | 0.00327 | – | – | – | – | – | –
2 | COc1ccc2c(c1C)CCCC=C2c1cc(OC)c(OC)c(OC)c1 [Compound 9, 1-methy-2-methoxy-5-(3′, 4′, 5′-trimethoxyphenyl)-benzosuber-5-ene] | – | – | – | – | 1.6 ± 0.2 | 65 ± 0.6 (5 μM) % | 0.33 | 0.422 | 0.644 | –
3 | CCCCc1c(OC)ccc2c1CCCC=C2c1cc(OC)c(OC)c(OC)c1 [Compound 20, 4-Butyl-3-methoxy-9-(30,40,50-trimethoxyphenyl)-6,7-dihydro-5H-benzo[7]annulene] | – | – | – | – | > 20 | – | 11.5 | 16.1 | 12.2 | –
4 | COc1ccc2c(c1O)CCCCC2(O)c1cc(OC)c(OC)c(OC)c1 (centres unmarked) [Compound 23, 2-Methoxy-5-(3,4,5-trimethoxyphenyl)-6,7,8,9-tetrahydro-5H-benzo[7]annulene-1,5-diol] | – | – | – | – | > 20 | – | 0.394 | 0.173 | 0.033 | reduced inhibition of tubulin polymerization
5 | COc1ccc2c(c1O)CCCC(=O)C2(O)c1cc(OC)c(OC)c(OC)c1 (centres unmarked) [Compound 24, 1,5-Dihydroxy-2-methoxy-5-(3,4,5-trimethoxyphenyl)-5,7,8,9-tetrahydro-6H-benzo[7]annulen-6-one] | – | – | – | – | 1.2 ± 0.1 | 72 ± 2 (5 μM) % | 0.0314 | 0.0476 | 0.141 | –
6 | COCCOCCOc1c(OC)ccc2c1CCCC=C2c1cc(OC)c(OC)c(OC)c1 [Compound 28, 3-Methoxy-4-(2-(2-methoxyethoxy)ethoxy)-9-(3,4,5-trimethoxyphenyl)-6,7-dihydro-5H-benzo[7]annulene] | – | – | – | – | > 20 | – | 6.52 | 1.9 | 5.66 | loss of inhibitory activity
7 | COc1cc(C2=CCCCc3c2ccc(OC)c3OCCO)cc(OC)c1OC [Compound 31, 2-((3-Methoxy-9-(3,4,5-trimethoxyphenyl)-6,7-dihydro-5H-benzo[7]annulen-4-yl)oxy)ethan-1-ol] | – | – | – | – | > 20 | – | 3.22 | 0.855 | 3.76 | loss of inhibitory activity
8 | COc1ccc2c(c1O)CCCC(Br)=C2c1cc(OC)c(OC)c(OC)c1 [Compound 33, 8-Bromo-3-methoxy-9-(3,4,5-trimethoxyphenyl)-6,7-dihydro-5H-benzo[7]annulen-4-ol] | – | – | – | – | 0.39 ± 0.06 | 88 ± 1 (5 μM) % | 0.0221 | 0.0353 | 0.0362 | –
9 | COc1ccc2c(c1C)CCCC(Br)=C2c1cc(OC)c(OC)c(OC)c1 [Compound 34, 8-Bromo-3-methoxy-4-methyl-9-(3,4,5-trimethoxyphenyl)-6,7-dihydro-5H-benzo[7]annulene] | 35 ± 5 (1 μM) % | – | – | – | 4.9 ± 0.1 | – | 0.312 | 0.449 | 0.423 | –
10 | COc1ccc2c(c1O)CCCC(O)C2(O)c1cc(OC)c(OC)c(OC)c1 (centres unmarked) [Compound 35, 2-Methoxy-5-(3,4,5-trimethoxyphenyl)-6,7,8,9-tetrahydro-5H-benzo[7]annulene-1,5,6-triol] | – | – | – | – | > 20 | 0 (5 μM) % | 3.03 | 3.86 | 4.04 | reduced inhibition of tubulin polymerization
11 | COc1ccc2c(c1C#N)CCCC=C2c1cc(OC)c(OC)c(OC)c1 [Compound 38, 3-Methoxy-9-(3,4,5-trimethoxyphenyl)-6,7-dihydro-5H-benzo[7]annulene-4-carbonitrile] | – | 0.0648 | – | – | 1.1 ± 0.1 | 62 ± 0.7 (5 μM) % | – | 0.434 | 0.86 | –
12 | COc1ccc2c(c1C#N)CCC=C2c1cc(OC)c(OC)c(OC)c1 [Compound 39, 2-Methoxy-5-(3,4,5-trimethoxyphenyl)-7,8-dihydronaphthalene-1-carbonitrile] | – | 0.0384 | – | – | 0.37 ± 0.08 | 73 ± 0.6 (5 μM) % | – | 0.0605 | – | –
13 | COc1ccc2c(c1C=O)CCCC=C2c1cc(OC)c(OC)c(OC)c1 [Compound 40, 3-Methoxy-9-(3,4,5-trimethoxyphenyl)-6,7-dihydro-5H-benzo[7]annulene-4-carbaldehyde] | – | – | – | – | 3.2 ± 0.08 | 61 ± 3 (5 μM) % | 0.0572 | 0.0847 | 0.0402 | –
14 | COc1ccc2c(c1CO)CCCC=C2c1cc(OC)c(OC)c(OC)c1 [Compound 48, (3-Methoxy-9-(3,4,5-trimethoxyphenyl)-6,7-dihydro-5H-benzo[7]annulen-4-yl)methanol] | – | – | – | – | 0.63 ± 0.03 | 76 ± 2 (5 μM) % | 0.0403 | 0.0628 | – | –
15 | COc1ccc2c(c1O)CCC(NC(C)=O)C=C2c1cc(OC)c(OC)c(OC)c1 (centres unmarked) [Compound 69] | – | – | – | – | – | 0.4 ± 0.6 (5 μM) % | – | 0.334 | 1.2 | –
16 | COc1ccc2c(c1OC)CCCC1=C2c2cc(OC)c(OC)c(OC)c2C1=O [Compound 93, 3,4,9,10,11-Pentamethoxy-6,7-dihydrodibenzo[a,h]azulen-8(5H)-one] | – | – | – | – | > 20 | – | 3.35 | 0.65 | 3.26 | –
17 | COc1cccc2c1C(=O)c1c(O)c3c(c(O)c1C2=O)C[C@@](O)(C(=O)CO)C[C@@H]3O[C@H]1C[C@H](N)[C@H](O)[C@H](C)O1 [Doxorubicin, reference compound] | – | – | – | – | – | – | 0.0789 | 0.123 | 0.134 | –
18 | CC(=O)O[C@H]1C(=O)[C@@]2(C)[C@H]([C@H](OC(=O)c3ccccc3)[C@]3(O)C[C@H](OC(=O)[C@H](O)[C@@H](NC(=O)c4ccccc4)c4ccccc4)C(C)=C1C3(C)C)[C@]1(OC(C)=O)CO[C@@H]1C[C@@H]2O [Paclitaxel, paclitaxel, reference compound] | – | – | – | – | – | – | 0.00134 | 0.00176 | 0.00147 | –
